Measured values reported in patent US20260374750A1, “LIGANDS SPECIFICALLY TARGETING VESICULAR GLUTAMATE TRANSPORTERS FOR SUPER-RESOLUTION IMAGING” (SORBONNE UNIVERSITÉ, priority 2021, published 2026).
Like-named read-outs stand apart in the source and are kept apart here.

Experiments:
[1] = Fluorimetry: absorption and emission spectra, Stokes shift, molar absorption coefficient, quantum efficiency; type: physicochemical; parameters: λmax abs / λmax em: unit not given here; key to Stokes shift: λmaxem − λmaxabs (emission peak minus absorption peak); details: for Stokes shift: λmaxem-λmaxabs; for ε (molar absorption coefficient) / φ (quantum efficiency): coumarin-343 as reference
Description: The physicochemical properties of each ligand were determined thanks to fluorimetry. For each compound, a dilution range was performed and measurements were taken at 1 mM, 316 μM, 100 μM, 31.6 μM, 10 μM, 3.16 μM and 1μ. In 96-well fluorescence microplates, the absorbance and emission spectra of the ligands could be determined at each concentration thanks to a plate spectrophotometer (Tecan). The absorbance spectra are first measured for each compound so as to determine the maximum absorption wavelength (λmaxabs). The fluorescence, or emission, spectra are then determined after excitation of each compound at its λmaxabs, thus allowing obtaining the maximum fluorescence wavelength (λmaxem). Different parameters specific to each of the compounds were determined: • The Stokes shift: it corresponds to the difference between the peak of the absorption spectrum and the peak of the fluorescence spectrum, i.e.: λmaxem-λmaxabs • The molar absorption coefficient (ε): it reflects the capacity of the solutions to absorb light and is determined by the formula ε=A/(C.I)(A: optical density at λmaxabs, C: concentration of the compound, I: constant corresponding to the length of the optical path). ε is expressed in L·cm^−1·mol^−1. • The quantum efficiency (Φ): it represents the ratio of the number of photons emitted to the number of photons absorbed by the compound, i.e. the “probability” for an excited molecule to emit a photon. It takes a value between 0 and 1, 0 corresponding to a non-fluorescent molecule and 1 meaning that there is no de-excitation. Its value is determined thanks to the following formula where Abs: optical density at λmaxabs, AUC: area under the curve of the fluorescence spectrum, n: refractive index of the medium. In this formula, “m” refers to the studied molecule, and “r” to a reference fluorophore.
[formula] • of the fluorescence spectrum, n: refractive index of the medium). In this formula, “m” refers to the studied molecule, and “r” to a reference fluorophore.
The determination of ε and Φ requires the use of a reference fluorescent molecule for which these two parameters are known. Because of its coumarin-type fluorescent pattern, therefore close to those of the studied compounds, coumarin-343 (ε=44300 L·cm−1·mol−1 and Φ=0.63 in ethanol) was used as reference fluorophore. These two parameters were recalculated in the compound dilution medium (DMSO), and were used as a reference in the calculation of ε and Φ for each ligand.
In order to study the effect of a pH variation on the fluorescence intensity of the compounds, the measurements of the absorption and emission spectra were carried out in three different dilution media: • DMSO: pure dimethyl sulfoxide • Phosphate buffer pH 7.2 (0.2 M) • Phosphate buffer pH 5.5 (0.2 M)
FIG. 1 illustrates the absorption and emission spectra of the compound referenced L8, a carboxylic acid from the quinoline family. This is an example of the study carried out on each of the studied fluorophores. The graphic values determined thanks to these spectra are the λmaxabs, the λmaxem and the Stokes shift in each medium. […] The most diluted wells are preferred to see the emission peak of the compound.
The results which are obtained graphically thanks to the excitation and emission spectra and by calculation via the properties of coumarin 343 are grouped in Table 2 below.

[2] = system: VGLUT3 (BON VGLUT3 cells); assay: Confocal fluorescence labeling of BON cells expressing VGLUT3; type: cell-based, human (BON cells); details: for intensity of labeling in BON VGLUT3 cells relative to BON WT cells: FIG. 3, 20 minutes; for intensity of labeling in BON VGLUT3 cells relative to BON WT cells / fluorescence intensity in BON VGLUT3 cells relative to BON WT cells / labeling in cytoplasm of BON VGLUT3 cells: 37 °C; for fluorescence intensity in BON VGLUT3 cells relative to BON WT cells / labeling in cytoplasm of BON VGLUT3 cells: 1 h; for effect of LSP5 pretreatment on fluorescence intensity in BON VGLUT3 cells: pretreatment with LSP5-2157
Description: A “BON” cell line describes cells derived from human pancreatic carcinoma; the article by Ramet L. et al., published in J Neurosci, 2017, 37 (15), 4181-4199, describes such cells and the use thereof for the characterization of VGLUT type transporters.
(§1) The experiments are carried out with a BON cell line stably expressing VGLUT3 or a fluorescent VGLUT2 “VGLUT2-venus”. Wild non-transfected BON cells (“wild-type”, BON WT) are used as controls. The cells are cultured in F-12 Nutrient Mixture Ham medium (21765-029, Thermo Fisher Scientific) and Dulbecco's Modified Eagle's Medium High Glucose (DMEM HG, 31966021, Thermo Fisher Scientific; volume/volume), supplemented with 10% fetal calf serum (FCS, 12483012, Thermo Fisher Scientific) and 1% (volume/volume) of a mixture of streptomycin (10 mg/mL)/penicillin (10,000 U/mL) and […] an incubator at 37 °C under 5% CO2. For the transfected clones, the medium is enriched with 0.8 mg/mL Geneticin G418 sulfate (G418, 10131027, Thermo Fisher Scientific).
The cells are cultured in 25 cm^2 culture flasks. When the cells are at confluence, they are rinsed with sterile PBS 1× after aspiration of the medium, then incubated for five minutes at 37 °C with a solution of trypsin-EDTA (0.05% trypsin EDTA, 25300054, Thermo Fisher Scientific. The cell layer is then detached and the cells dissociated from each other. After addition of medium, the cell suspension is centrifuged for 5 minutes at 300 g, then the pellet is diluted 1:3 in order to be recultivated.
(§2) Two days before each experiment, after trypsinization of the cells from a culture flask, the cell suspension is seeded at 150,000 cells/well, in twelve-well plates on glass coverslips 19 mm in diameter. For observation, these coverslips are placed in a chamber allowing a hermetic fixation of the coverslip in the observation medium, Fluorobrite™ DMEM (A1896701, Thermo Fisher Scientific), a transparent medium.
(§3) Before each observation, the cells are incubated at 37 °C in the presence of fluorescent ligands, at previously determined concentrations. The effect of a pretreatment of BON cells with a specific inhibitor of VGLUTs, the substance LSP5-2157, is also performed to study the inhibitory effect of this substance on the labeling of BON cells with the fluorescent ligands of the invention.
(§4) The cells are observed in real time under an inverted confocal microscope, with a 63× objective in a room thermostated at 37 °C (Leica TCS SP5; cellular imaging platform of the Paris-Seine Institute of Biology). The studied fluorescent molecules emit in the blue, the cells are excited at 405 nm.
(§5) FIG. 2 illustrates the observation and quantification of the BON cells under a confocal microscope, and the inhibition of the fluorescent signal by a pretreatment of the cells with the specific VGLUT inhibitor, LSP5-2157. […] The images are presented in negative. D,H,L and P: Quantification of the treatment effect.
Different acquisitions of cells are carried out using a confocal microscope. […] Statistical analysis: Kruskal-Wallis test followed by Dunn's post-hoc test, NS: non-significant, *p<0.01; ***p<0.0001.
FIG. 3 illustrates the observation and quantification of BON cells using a confocal microscope. Wild-type cells (BON WT) or VGLUT3-expressing cells (BON VGLUT3) are incubated with different fluorescent ligands referenced: L8, YL151, D04, C07, C05, B09, G02, F11. After treatment with fluorescent ligands for 20 minutes at 37 °C, a fluorescent labeling is visible in BON cells. The effect of the treatment is analyzed by quantifying the fluorescence intensity in each cell type. […] Statistical analysis: Mann Whitney test, NS: non-significant, **p=0.0042; ***p<0.0001.

[3] = system: BON WT cells; assay: Confocal fluorescence labeling of wild-type BON cells; type: cell-based, human; details: FIG. 2
Description: as §1, §2, §3, §4, §5

[4] = reference fluorophore, in ethanol; cited from earlier work
[5] = pH 7 (phosphate buffer pH 7.2, 0.2 M)
[6] = phosphate buffer pH 5.5 (0.2 M)

Row | SMILES | λmax abs ([1]; DMSO) | λmax em ([1]; DMSO) | Stokes shift ([1]; DMSO) | ε (molar absorption coefficient) ([1]; DMSO) [L/cm/mol] | φ (quantum efficiency) ([1]; DMSO) | Stokes shift ([1]; pH 5.5) | λmax abs [1, 5] | λmax em [1, 5] | Stokes shift ([1]; pH 7) | λmax abs [1, 6] | λmax em [1, 6] | intensity of labeling in BON VGLUT3 cells relative to BON WT cells [2] | fluorescence intensity in BON VGLUT3 cells relative to BON WT cells ([2]; FIG. 2) | labeling in cytoplasm of BON VGLUT3 cells ([2]; FIG. 2) | effect of LSP5 pretreatment on fluorescence intensity in BON VGLUT3 cells ([2]; FIG. 2) | labeling in cytoplasm of BON WT cells [3] | further results
1 | CCOC(=O)c1cc(C(=O)OCC)c2cc(-c3ccc(-c4ccccc4)cc3)ccc2n1 [YL151, Diethyl 6-(biphenyl-4-yl) quinoline-2,4-dicarboxylate] | 360 | 420-570 | 60 | 25747.1 | 0.11 | 85 | 365 | 440 | 75 | 365 | 450 | increases significantly | – | – | – | – | –
2 | CCOC(=O)c1cc2cc(-n3cc(-c4ccc(-c5ccc(N)cc5)cc4)nn3)ccc2oc1=O [B09, Ethyl-6-(4-(4′-amino-[1,1′-biphenyl]-4-yl)-1H-1,2,3-triazol-1-yl)-2-oxo-2H-chromene-3-carboxylate] | 320 | 407 | 87 | 48740.9 | 0.1 | 47 | 365 | 412 | 47 | 365 | 412 | increases significantly | significantly increases | a punctiform labeling appears | decreases the fluorescence intensity | a weak and homogeneous labeling is detected | –
3 | Cc1cc(-c2ccc(/N=N/c3c(S(=O)(=O)O)cc4cc(S(=O)(=O)O)cc(N)c4c3O)c(C)c2)ccc1/N=N/c1c(S(=O)(=O)O)cc2cc(S(=O)(=O)O)cc(N)c2c1O [trypan blue, reference compound] | – | – | – | – | – | – | – | – | – | – | – | – | – | – | – | – | block of binding of novel ligands by reference inhibitor [2]: block the binding of novel ligands
4 | Nc1cc(S(=O)(=O)O)cc2cc(S(=O)(=O)O)c(/N=N/c3ccc(-c4ccc(/N=N/c5c(S(=O)(=O)O)cc6cc(S(=O)(=O)O)cc(N)c6c5O)cc4)cc3)c(O)c12 [LSP5-2157, reference compound] | – | – | – | – | – | – | – | – | – | – | – | – | – | – | – | – | inhibition of fluorescent labeling by pre-incubation with VGLUT inhibitor ([2]; FIG. 2, against labeling by fluorescent ligands): significantly reduces the fluorescent labeling; displacement of ligand binding in cell culture ([2]; reference VGLUT inhibitor): capable of displacing the ligand binding in cell culture
5 | CCOC(=O)c1cc2cc(-n3cc(-c4ccc(-c5ccc(N)cc5)cc4)nn3)c(OC)cc2oc1=O [C07, Ethyl 6-(4-(4′-amino-[1,1′-biphenyl]-4-yl)-1H-1,2,3-triazol-1-yl)-7-methoxy-2-oxo-2H-chromene-3-carboxylate] | 335 | 410-430 | 75 | 64913.8 | 0.05 | 50 | 365 | 400 | 35 | 330 | 380 | increases significantly | significantly increases | a punctiform labeling appears | do not significantly differ | a weak and homogeneous labeling is detected | –
6 | O=C(O)c1cc2cc3c4c(c2oc1=O)CCCN4CCC3 [coumarin-343] | – | – | – | – | – | – | – | – | – | – | – | – | – | – | – | – | Φ (quantum efficiency) [4]: 0.63; ε (molar absorption coefficient) [4]: 44300 L/cm/mol
